The values that follow come from patent US7135466B2 (Kirin Beer Kabushiki Kaisha, priority 1999, dated 2006).

Bounds are passed on as bounds.

The target in this assay is T1, c-kit (Homo sapiens, UniProt P10721).
T1 construct: MO7e (human megakaryocytic leukemia cell line) which had been arrested for 20 hr; endogenous in cells; host or cells: MO7e human megakaryocytic leukemia cell line
T1 sequence (P10721 26-976): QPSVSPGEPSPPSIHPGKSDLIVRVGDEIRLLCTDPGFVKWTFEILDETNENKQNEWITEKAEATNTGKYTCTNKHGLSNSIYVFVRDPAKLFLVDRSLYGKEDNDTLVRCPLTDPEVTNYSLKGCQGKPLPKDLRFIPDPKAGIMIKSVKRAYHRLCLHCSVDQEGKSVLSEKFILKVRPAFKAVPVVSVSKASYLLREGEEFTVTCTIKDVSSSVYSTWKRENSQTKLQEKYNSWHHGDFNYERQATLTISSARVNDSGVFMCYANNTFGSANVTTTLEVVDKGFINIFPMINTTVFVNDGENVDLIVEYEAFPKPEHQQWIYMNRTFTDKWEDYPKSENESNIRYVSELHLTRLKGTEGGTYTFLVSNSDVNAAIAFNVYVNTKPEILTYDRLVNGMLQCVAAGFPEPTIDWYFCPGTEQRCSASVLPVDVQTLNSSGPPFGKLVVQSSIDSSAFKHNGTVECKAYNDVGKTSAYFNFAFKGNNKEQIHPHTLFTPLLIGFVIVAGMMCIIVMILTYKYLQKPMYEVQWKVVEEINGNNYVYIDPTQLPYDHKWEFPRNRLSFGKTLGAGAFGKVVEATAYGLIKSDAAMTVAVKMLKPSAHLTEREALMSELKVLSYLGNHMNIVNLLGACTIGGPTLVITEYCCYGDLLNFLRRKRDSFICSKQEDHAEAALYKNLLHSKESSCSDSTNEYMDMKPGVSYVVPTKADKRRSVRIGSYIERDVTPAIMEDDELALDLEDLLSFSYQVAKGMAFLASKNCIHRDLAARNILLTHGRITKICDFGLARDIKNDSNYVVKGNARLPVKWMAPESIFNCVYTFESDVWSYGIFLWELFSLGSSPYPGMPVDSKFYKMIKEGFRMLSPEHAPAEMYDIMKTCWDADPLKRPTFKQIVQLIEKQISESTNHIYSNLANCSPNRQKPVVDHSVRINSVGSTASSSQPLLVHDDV
As to the kind of experiment: Inhibitory activity against c-kit autophosphorylation (MO7e cells, h-SCF). It is filed as cell-based. Conditions: MO7e cells, h-SCF 50 ng/ml; read-out: c-kit IC50. The protocol: Inhibitory Activity Against c-kit Autophosphorylation
MO7e (human megakaryocytic leukemia cell line) which had been arrested for 20 hr was seeded into 96 well plates at an amount of 2×10^5 per well. A solution of a test compound in DMSO was added, and a reaction was then allowed to proceed for one hr. Thereafter, the cells were stimulated by 50 ng/ml of h-SCF for 5 min, followed by replacement with lysate buffer to solubilize the cells.
Next, the solubilized cell sap was transferred to a 96-well plate with an anti-phosphotyrosine antibody (PY-20) previously immobilized thereon, and a reaction was allowed to proceed. Thereafter, the cells were reacted with an anti-c-kit antibody (c-19, Santa Cruz) as a primary antibody and were labelled with GAR (anti-rabbit IgG, horseradish peroxidase, Amersham) as a secondary antibody. Color development was then carried out in a peroxidase color development kit (Sumitomo Bakelite Co., Ltd.), and the absorbance was measured at a wavelength of 450 nm.
In general, IC50 refers to the point on the concentration scale where inhibition reaches its midpoint. Consider “4-Methylbenzyl {2-chloro-4-[(6,7-dimethoxy-4-quinazolinyl)oxy]anilino}methanethioate [Example 111]”, for which the IC50 turned out to be 750 nM.

With “4-Methylbenzyl {4-[(6,7-dimethoxy-4-quinazolinyl)oxy]anilino}methanethioate [Example 110]”, the IC50 is 110 nM.

Consider `COc1cc2nccc(Oc3ccc(NC(=O)SCc4ccc(C)cc4)cc3)c2cc1OC` [Example 107, 4-Methylbenzyl {4-[(6,7-dimethoxy-4-quinolyl)oxy]anilino}methanethioate], for which the IC50 was 372 nM.

Regarding `COc1cc2nccc(Oc3ccc(NC(=O)SCc4ccc(C)cc4)c(C)c3C)c2cc1OC` [Example 108, 4-Methylbenzyl {4-[(6,7-dimethoxy-4-quinolyl)oxy]-2,3-dimethylanilino}methanethioate], the IC50 was 180 nM.

Take `COc1cc2nccc(Oc3cc(C)c(NC(=O)SCc4ccc(C)cc4)cc3C)c2cc1OC` [Example 109, 4-Methylbenzyl {4-[(6,7-dimethoxy-4-quinolyl)oxy]-2,5-dimethylanilino}methanethioate]: the IC50 was determined as 412 nM.

For `COc1cc2nccc(Oc3ccc(NC(=O)Oc4ccccc4)cc3)c2cc1OC` [Example 216, Phenyl N-{4-[(6,7-dimethoxy-4-quinolyl)oxy]phenyl}carbamate], the IC50 was 19 nM.

Take `COc1cc2nccc(Oc3ccc(NC(=O)Oc4ccccc4)c(C)c3C)c2cc1OC` [Example 217, Phenyl N-{4-[(6,7-dimethoxy-4-quinolyl)oxy]-2,3-dimethylphenyl}carbamate]: the IC50 is 39 nM.

For `COc1cc2nccc(Oc3cc(C)c(NC(=O)OCc4ccccc4)cc3C)c2cc1OC` [Example 218, Benzyl N-{4-[(6,7-dimethoxy-4-quinolyl)oxy]-2,5-dimethylphenyl}carbamate], the IC50 is 123 nM.

Take `COc1cc2nccc(Oc3ccc(NC(=O)OCc4ccccc4)c(C)c3C)c2cc1OC` [Example 219, Benzyl N-{4-[(6,7-dimethoxy-4-quinolyl)oxy]-2,3-dimethylphenyl}carbamate]: the half-maximal inhibitory concentration (IC50) is less than 30 nM.

Consider `COc1cc2ncnc(Oc3ccc(NC(=O)OCc4ccccc4)cc3)c2cc1OC` [Example 220, Benzyl N-{4-[(6,7-dimethoxy-4-quinazolinyl)oxy]phenyl}carbamate], for which the IC50 came to 77 nM.

Regarding `COc1cc2nccc(Oc3cc(C)c(NC(=O)OC4CCCCC4)cc3C)c2cc1OC` [Example 221, Cyclohexyl N-{4-[(6,7-dimethoxy-4-quinolyl)oxy]-2,5-dimethylphenyl}carbamate], the IC50 was 109 nM.

In the case of `COc1cc2nccc(Oc3ccc(NC(=O)OC4CCCCC4)c(C)c3C)c2cc1OC` [Example 222, Cyclohexyl N-{4-[(6,7-dimethoxy-4-quinolyl)oxy]-2,3-dimethylphenyl}carbamate], the IC50 was 101 nM.

As to `COc1cc2nccc(Oc3cc(C)c(NC(=O)Oc4ccccc4)cc3C)c2cc1OC` [Example 224, Phenyl N-{4-[(6,7-dimethoxy-4-quinolyl)oxy]-2,5-dimethylphenyl}carbamate], the half-inhibitory concentration (IC50) was found to be 147 nM.

`COc1cc2ncnc(Oc3ccc(NC(=O)OCc4ccccc4)c(Cl)c3)c2cc1OC` [Example 225, Benzyl N-{2-chloro-4-[(6,7-dimethoxy-4-quinazolinyl)oxy]phenyl}carbamate]: the IC50 came to 453 nM.

With `COc1cccc(COC(=O)Nc2ccc(Oc3ccnc4cc(OC)c(OC)cc34)cc2)c1` [Example 226, 3-Methoxybenzyl N-{4-[(6,7-dimethoxy-4-quinolyl)oxy]phenyl}carbamate], the IC50 was found to be 72 nM.

Turning to `COc1cc2nccc(Oc3ccc(NC(=O)OCc4ccccc4Cl)cc3)c2cc1OC` [Example 227, 2-Chlorobenzyl N-{4-[(6,7-dimethoxy-4-quinolyl)oxy]phenyl}carbamate], the IC50 is 194 nM.

`COc1cc2nccc(Oc3ccc(NC(=O)OCc4cccc(Cl)c4)cc3)c2cc1OC` [Example 228, 3-Chlorobenzyl N-{4-[(6,7-dimethoxy-4-quinolyl)oxy]phenyl}carbamate]: the IC50 was 71 nM.
